One may read the EC50 as the midpoint of the concentration-response curve.

One assay deals with Hennes-20 cells. Nature of the assay: Hennes-20 oncology screen (low vs high plating density, alamar Blue). In kind it is cell-based. The note with it: 72 h. As to the method:
All compounds mentioned as active were tested in Hennes. Select hits from the Hennes screen were sent for additional anti-cancer testing.
To screen compounds for oncology activity Hennes-20 cells were plated at low (500 cells/well) versus high (15,000 cells/well) densities and treated with DMSO (vehicle) or dose-titration of compounds. The rationale for this screen is that an intrinsically toxic compound should kill cells regardless of density, including in Hennes-20 cells. However, a compound that selectively triggers the arrest of proliferation will inhibit cell growth when plated at a low density will appear cytotoxic due to inhibition of cell growth when plated at a low density but will appear non-toxic to cells plated at a high density where the cells are approaching confluence and the readout detected by a cell viability assay is already close to the maximum.
To conduct the Hennes-20 screen, two 96 well plates were seeded with Hennes 20 cells in parallel where one was plated at a density of 500 cells/well and the other was plated at a density of 15,000 cells/well. 90 uL of minimum essential media was added to each well and plates were placed in a 37 degrees Celsius incubator for 24 hours. The next day, 10 ul of media containing dilutions of compound in DMSO were added to each plate. Six wells on each plate received 10 ul of media containing only DMSO. Each well was gently mixed 5 times with a 100 ul pipette. Plates were incubated at 37 degrees Celsius for 72 hours then 10 uL of alamar Blue was added to each well. Wells were mixed 5 times then incubated at 37 degrees Celsius for […]. Plates were then read at 530/590.
The rationale for the screen is as follows: Hennes-20 cells lack endogenous apoptosis. Cells plated at low density will proliferate and approach confluence in 72 hrs. A drug that arrests proliferation may have its proliferation blocking effect masked by the triggering of endogenous apoptosis. However, in the Hennes line, lacking endogenous apoptosis, such an arrest is manifest as a dose-dependent maintenance at low cell density. Since the high-density cells are plated close to confluence, the difference between Alamar Blue cell survival readings after 72 hrs reflects the ability of the drug to block proliferation in the low density-plated cells. In the high density-plated cells any diminution of Alamar Blue readout vs vehicle control is due to intrinsic toxicity, not proliferation arrest, since cells were already at confluence. Thus, a compound that appears toxic (low Alamar Blue readings after 72 hrs) on the low-density plate, but which appears non-toxic (high Alamar Blue readings after 72 hrs) on the high-density plate, must be arresting proliferation, since intrinsic compound toxicity should be observed at both low and high cell densities, not selectively on the low-density plate.
On the technique in general: Resazurin is reduced to fluorescent resorufin, in cell work by metabolically active cells.
`CCCCNc1ncnc2cc(N3CCN(c4cc(NCCC(C)C)c5cncnc5c4)C(C)C3)ccc12` (centres unmarked) [Compound 67] came in with an EC50 of 500 nM.

The assay is the same for the next values; noted with them: 72 h, Hennes-20 cells, 72 hours compound incubation, alamar Blue; read-out: EC50.
As for `CC(C)CCNc1cc(N2CCN(c3ccc4c(NCC(C)(C)C)ncnc4c3)CC2C)cc2ncncc12` (centres unmarked) [Compound 66], the EC50 turned out to be 2500 nM.

Turning to `CC(C)CCNc1ncnc2cc(N3CCN(c4ccc5c(NCCN6CCN(C)CC6)ncnc5c4)CC3)ccc12` [Compound 82], the EC50 is < 12500 nM.

For `CC(C)CCNc1ncnc2cc(N(C)CCCN(C)c3ccc4c(NCCC(C)C)ncnc4c3)ccc12` [Compound 99], the concentration giving a half-maximal response (EC50) was < 12500 nM.

With `CC(C)(C)CNc1ncnc2cc(N3CCN(c4ccc5c(N6CCC(C)(C)CC6)ncnc5c4)CC3)ccc12` [Compound 74], the EC50 was found to be 500 nM.

As to `CC(C)CCN(C)c1ncnc2cc(N3CCN(c4ccc5c(NCCc6ccncc6)ncnc5c4)CC3)ccc12` [Compound 61], the 50% effective concentration (EC50) was determined as 2500 nM.

As to `CCCCNc1ncnc2cc(N3CCN(c4ccc5c(NCCC(C)C)ncnc5c4)C(C)C3C)ccc12` (centres unmarked) [Compound 52], the EC50 was 2500 nM.

For the compound `CCCCNc1ncnc2cc(N3CCN(c4ccc5c(NCCc6ccncc6)ncnc5c4)CC3)ccc12` [Compound 73], the concentration giving a half-maximal response (EC50) worked out at 2500 nM.

As to `CCCCNc1ncnc2cc(N3CCN(c4ccc5c(NCCc6ccccn6)ncnc5c4)CC3)ccc12` [Compound 69], the EC50 was 500 nM.

As for `CCN(CCN(C)c1ccc2c(NCCC(C)C)ncnc2c1)c1ccc2c(NCCC(C)C)ncnc2c1` [Compound 96], the concentration giving a half-maximal response (EC50) was < 2500 nM.

Turning to `CCN(CCN(C)c1ccc2c(NCC(C)(C)C)ncnc2c1)c1ccc2c(NCCC(C)C)ncnc2c1` [Compound 94], the concentration for a half-maximal effect (EC50) was < 2500 nM.

`CC(C)(C)CNc1ncnc2cc(N3CCN(c4ccc5c(NCCC6CCNCC6)ncnc5c4)CC3)ccc12` [Compound 59]: the concentration for a half-maximal effect (EC50) was > 12500 nM.

With `CC(C)CCN(C)c1ncnc2cc(N3CCN(c4ccc5c(NCCc6ccccc6)ncnc5c4)CC3)ccc12` [Compound 60], the EC50 came to 2500 nM.

For the compound `CC(C)CCNc1ncnc2cc(N3CCN(c4ccc5c(NCCCN(C)C)ncnc5c4)CC3)ccc12` [Compound 31], the EC50 is < 12500 nM.

For the compound `CCCCNc1ncnc2cc(N3CCN(c4ccc5c(NCCC(C)C)ncnc5c4)CC3C)ccc12` (centres unmarked) [Compound 51], the EC50 is 500 nM.

In the case of `CC(C)CNc1ncnc2cc(N3CCN(c4ccc5c(NCCc6ccccc6)ncnc5c4)CC3)ccc12` [Compound 64], the EC50 was 2500 nM.

`CCCCNc1ncnc2cc(N(CC)CCN(C)c3ccc4c(NCCC(C)C)ncnc4c3)ccc12` [Compound 92]: the EC50 is 2500 nM.

`CC(C)CCNc1ncnc2cc(N(C)CCN(C)c3ccc4c(NCC(C)(C)C)ncnc4c3)ccc12` [Compound 90]: the EC50 was 2500 nM.

Consider `CCCCNc1ncnc2cc(N3CCN(c4ccc5c(NCCc6ccccc6)ncnc5c4)CC3)ccc12` [Compound 56], for which the EC50 was found to be 12500 nM.

As to `CCCCNc1ncnc2cc(N3CCN(c4ccc5c(NCCC6CCNCC6)ncnc5c4)CC3)ccc12` [Compound 57], the 50% effective concentration (EC50) is > 12500 nM.

`CC(C)CCNc1ncnc2cc(N3CCN(c4ccc5c(NCC(C)(C)C)ncnc5c4)CC3)ccc12` [Compound 24]: the EC50 is < 500 nM.

On to `CCCCNc1ncnc2cc(N3CCN(c4ccc5c(NCCCC)ncnc5c4)C(C)C3)ccc12` (centres unmarked) [Compound 53], for which the EC50 was 500 nM.

On to `CC(C)CCNc1ncnc2cc(N3CCN(c4ccc5c(NCCc6ccncc6)ncnc5c4)CC3)ccc12` [Compound 85], for which the EC50 is < 12500 nM.

Turning to `CCCCNc1ncnc2cc(N(C)CCCN(C)c3ccc4c(NCCC(C)C)ncnc4c3)ccc12` [Compound 98], the EC50 was < 2500 nM.

Take `CC(C)CCNc1ncnc2cc(N3CCN(c4ccc5c(NCCc6ccccn6)ncnc5c4)CC3)ccc12` [Compound 84]: the EC50 is 500 nM.

Turning to `CC(C)CCNc1ncnc2cc(N3CCN(c4ccc5c(NCCC6CCCC6)ncnc5c4)CC3)ccc12` [Compound 80], the half-maximal effective concentration (EC50) was determined as 500 nM.

In the case of `CCN(CCN(CC)c1ccc2c(NCC(C)(C)C)ncnc2c1)c1ccc2c(NCCC(C)C)ncnc2c1` [Compound 86], the EC50 was < 2500 nM.

With `CCCCNc1ncnc2cc(N(C)CCN(C)c3ccc4c(NCCCC)ncnc4c3)ccc12` [Compound 89], the 50% effective concentration (EC50) came out at 500 nM.

Take `CCCCNc1ncnc2cc(N3CCN(c4ccc5c(N6CCC(C)(C)CC6)ncnc5c4)CC3)ccc12` [Compound 70]: the EC50 came to 500 nM.

`CC(C)CCNc1ncnc2cc(N3CCN(c4ccc5c(NCCc6cccnc6)ncnc5c4)CC3)ccc12` [Compound 83]: the EC50 was < 2500 nM.

`CC(C)(C)CNc1ncnc2cc(N3CCN(c4ccc5c(NCCc6ccncc6)ncnc5c4)CC3)ccc12` [Compound 77]: the EC50 was < 12500 nM.

With `CC(C)(C)CNc1ncnc2cc(N3CCN(c4ccc5c(NCCc6ccccc6)ncnc5c4)CC3)ccc12` [Compound 58], the 50% effective concentration (EC50) is 12500 nM.

On to `CC(C)CCNc1ncnc2cc(N3CCN(c4ccc5c(NC(C)C)ncnc5c4)CC3)ccc12` [Compound 29], for which the EC50 is < 500 nM.

With `CC(C)CNc1ncnc2cc(N3CCN(c4ccc5c(NCCC6CCNCC6)ncnc5c4)CC3)ccc12` [Compound 63], the EC50 was > 12500 nM.

As for `CN1CCN(CCNc2ncnc3cc(N4CCN(c5ccc6c(NCC(C)(C)C)ncnc6c5)CC4)ccc23)CC1` [Compound 75], the EC50 was > 2500 nM.

With `CCCCNc1ncnc2cc(N(C)CCN(CC)c3ccc4c(NCCCC)ncnc4c3)ccc12` [Compound 93], the EC50 is < 2500 nM.

For the compound `CCCCNc1ncnc2cc(N(C)CCN(CC)c3ccc4c(NCCC(C)C)ncnc4c3)ccc12` [Compound 95], the half-maximal effective concentration (EC50) is < 2500 nM.

As to `CCCCNc1ncnc2cc(N3CCN(c4ccc5c(NCCN6CCN(C)CC6)ncnc5c4)CC3)ccc12` [Compound 71], the half-maximal effective concentration (EC50) is > 2500 nM.

In the case of `CC(C)CNc1ncnc2cc(N3CCN(c4ccc5c(NCCc6ccncc6)ncnc5c4)CC3)ccc12` [Compound 65], the EC50 turned out to be 2500 nM.

For `CCCCNc1ncnc2cc(N(C)CCN(C)c3ccc4c(NCCC(C)C)ncnc4c3)ccc12` [Compound 91], the EC50 is 2500 nM.

As for `CC(C)CCN(C)c1ncnc2cc(N3CCN(c4ccc5c(NCCC6CCNCC6)ncnc5c4)CC3)ccc12` [Compound 62], the concentration giving a half-maximal response (EC50) was > 12500 nM.

As for `CCCCNc1ncnc2cc(N3CCN(c4ccc5c(NCCC(C)C)ncnc5c4)CC3)ccc12` [Compound 22], the concentration giving a half-maximal response (EC50) was < 500 nM.

Regarding `CC(C)(C)CNc1ncnc2cc(N3CCN(c4ccc5c(NCCc6cccnc6)ncnc5c4)CC3)ccc12` [Compound 76], the EC50 stood at 2500 nM.

Turning to `CCCCNc1ncnc2cc(N3CCN(c4ccc5c(NCCc6cccnc6)ncnc5c4)CC3)ccc12` [Compound 72], the EC50 turned out to be 2500 nM.

Take `CCN(CCN(CC)c1ccc2c(NCCC(C)C)ncnc2c1)c1ccc2c(NCCC(C)C)ncnc2c1` [Compound 88]: the concentration giving a half-maximal response (EC50) was < 12500 nM.

For `CCCCNc1ncnc2cc(N(CC)CCN(CC)c3ccc4c(NCCC(C)C)ncnc4c3)ccc12` [Compound 87], the EC50 was determined as 2500 nM.

As for `CC(C)CCNc1ncnc2cc(N3CCN(c4ccc5c(NCCC(C)C)ncnc5c4)C(C)C3C)ccc12` (centres unmarked) [Compound 55], the EC50 was determined as 500 nM.

In the case of `CC(C)CCNc1ncnc2cc(N3CCN(c4ccc5c(NCC(C)C)ncnc5c4)CC3)ccc12` [Compound 8], the half-maximal effective concentration (EC50) is < 500 nM.

The assay is the same for the next values; noted with them: Hennes-20 cells, 72 hours compound incubation, alamar Blue; read-out: EC50.
With `CC(C)CCNc1ncnc2cc(N3CCN(c4ccc5c(N(C)CC(C)C)ncnc5c4)CC3)ccc12` [Compound 7], the EC50 was < 500 nM.

As to `CC(C)CCNc1ncnc2cc(N3CCN(c4ccc5c(N(C)CC(C)C)ncnc5c4)CC3)ccc12` [Compound 23], the 50% effective concentration (EC50) was < 2500 nM.

For the origin of these results see patent US20240300905A1, “Quinazoline Compounds and Uses” (Prosetta Biosciences, Inc., priority 2023, published 2024).
